Consider nine molecules from patent US4462819A, “Urease inhibited urea based fertilizer compositions containing organo boron acid compounds” (Allied Corporation, priority 1983, dated 1984).

The test system of experiment [1] is urease. In words: Evaluation of urease inhibiting activity in soil, Test A (test compound and urea applied together). It counts as biochemical. Also on record: key: A=excellent inhibition; B=partial inhibition; C=no inhibition. To be noted: 800 μg test compound and 42.8 mg urea in 20 g air-dry soil (Cazenovia sandy loam pH 7.2), 25° C., 3 days; remaining urea, relative to control without test compound. As to the method: Certain selected organo boron acid compounds were evaluated for urease inhibiting activity. The tests were run in a New York soil (Cazenovia sandy loam pH 7.2). Test A evaluations (run in triplicate) consisted of applying 800 μg of test compound in 5 mL water and 42.8 mg urea in 1 mL water to 20 g air-dry soil in a glass bottle. The bottle was capped with perforated aluminum foil and incubated at 25° C. for 3 days prior to extraction with a 100 mL 2M KCL solution containing 0.5 mg phenylmercuric acetate. The extracts were then analyzed for remaining urea using an autoanalyzer.

The subject of experiment [2] is urease. In words: Evaluation of urease inhibiting activity in soil, Test B (test compound incubated in soil 3 days before urea was added). Set-up: key: A=excellent inhibition; B=partial inhibition; C=no inhibition. To be noted: 800 μg test compound incubated in 20 g soil (Cazenovia sandy loam pH 7.2) for 3 days before urea was added; analysis 3 days after urea addition; relative to control without test compound. It counts as biochemical.

Take `OB1OCc2ccccc21` [XVII, Borphthalide]: in experiment [1], the “% INHIBITION (TEST A)” value was “C”. Also, in experiment [2], the “% INHIBITION (TEST B)” value is “A”.

Consider `Cl.ONc1ccccc1B(O)O` [XIII, 2-Hydroxylaminobenzeneboronic Acid Hydrochloride], for which the “% INHIBITION (TEST A)” value in experiment [1] is “C”. Further, the “% INHIBITION (TEST B)” value in experiment [2] is recorded as “A”.

As to `OB(O)c1cccc(O)c1` [XIX, 3-Hydroxybenzeneboronic Acid], the “% INHIBITION (TEST A)” value in experiment [1] is “B”. For the same molecule, in experiment [2], the “% INHIBITION (TEST B)” value is recorded as “A”.

`Nc1ccc(B(O)O)cc1` [XII, 4-Aminobenzeneboronic Acid]: the “% INHIBITION (TEST A)” value in experiment [1] was “B”. The “% INHIBITION (TEST B)” value in experiment [2] is reported as “A”.

For the molecule `Cl.ONc1ccc(B(O)O)cc1` [XV, 4-Hydroxylaminobenzeneboronic Acid Hydrochloride], the “% INHIBITION (TEST A)” value in experiment [1] is on record as “A”. Also, the “% INHIBITION (TEST B)” value in experiment [2] is recorded as “A”.

For `Cl.ONc1cccc(B(O)O)c1` [XIV, 3-Hydroxylaminobenzeneboronic Acid Hydrochloride], in experiment [1], the “% INHIBITION (TEST A)” value is recorded as “B”. For the same molecule, the “% INHIBITION (TEST B)” value in experiment [2] was “B”.

For `Nc1ccccc1B(O)O` [X, 2-Aminobenzeneboronic Acid], the “% INHIBITION (TEST A)” value in experiment [1] is “C”. Besides, in experiment [2], the “% INHIBITION (TEST B)” value was “A”.

As for `OB1ON=Cc2ccccc21` [XVIII, 4-Hydroxy-4,3-boroxaroisoquinoline], in experiment [1], the “% INHIBITION (TEST A)” value is “B”. Besides, the “% INHIBITION (TEST B)” value in experiment [2] was “B”.

With `NC(=O)Nc1cccc(B(O)O)c1` [XVI, 3-Ureidophenylboric Acid], the “% INHIBITION (TEST A)” value in experiment [1] is recorded as “C”. In experiment [2], the “% INHIBITION (TEST B)” value was “B”.
